In ChEMBL document CHEMBL1201862, “PubChem BioAssay data set” (2004):
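These data come from cells grown in 96-well plates and exposed to compound for 48 hours at five concentrations. At the GI50, growth is halved.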 The source made the active and inactive calls. Cut-off read from the data, not from the text of the source: active = GI50 up to about 1.1 µM and inactive = higher.

Tests used:
Assay in all cases: NCI-60 cell line screen, 48 h
SNB-78 = test system: SNB-78
DMS-273 = test system: DMS-273
RXF 631 = test system: RXF 631
DU-145 = test system: DU-145
PC-3 = test system: PC-3
M19-MEL = test system: M19-MEL
XF498 = test system: XF498
BT-549 = test system: BT-549

Measured: GI50

c1ccc2cc3n[se]nc3cc2c1
inactive: SNB-78 > 100 µM | DMS-273 > 100 µM | RXF 631 10.4 µM

C=CCP(=O)(CC=C)C(Cl)Cl
inactive: DU-145 > 100 µM | PC-3 > 100 µM

C=C(C(=O)C(=O)Oc1ccc(Cl)cc1)C(=O)c1ccc(C)cc1
inactive: SNB-78 65 µM | DMS-273 39.2 µM | RXF 631 46.2 µM | M19-MEL 17.7 µM | XF498 > 100 µM

COc1nc2ccc(CNc3ccc(C(=O)NC(CCC(=O)O)C(=O)O)cc3)cc2nc1OC (stereo not given)
inactive: DU-145 > 100 µM | PC-3 44.6 µM | BT-549 > 100 µM

COc1ccc2c(c1)CC1Cc3ccccc3CCN1C2 (stereo not given)
inactive: DU-145 61.2 µM | PC-3 25.9 µM | BT-549 > 100 µM

O=C1OC2(OC2c2ccc(Cl)cc2)c2ccccc21 (stereo not given)
inactive: DMS-273 > 100 µM | M19-MEL > 100 µM | XF498 43.4 µM

C/C(=C1/N=C(c2cc([N+](=O)[O-])ccc2Cl)N(c2ccc(Br)cc2)C1=O)c1cc2ccccc2oc1=O
inactive: SNB-78 31.6 µM | M19-MEL 5.89 µM

CC(C)OP(=O)(OC(C)C)/C(I)=N/Nc1ccc([N+](=O)[O-])cc1
inactive: SNB-78 > 100 µM | DMS-273 > 100 µM | M19-MEL > 100 µM | XF498 > 100 µM

COc1cc2c(cc1OC)-c1cc3ccccc3c(=O)n1CC2
inactive: DU-145 25.6 µM | PC-3 2.68 µM | BT-549 29.2 µM

O=[N+]([O-])C(=C/c1ccccc1)/C(=C\c1ccccc1)[N+](=O)[O-]
inactive: DU-145 16.1 µM | PC-3 19.3 µM | BT-549 17.6 µM

Cc1c2cnccc2c(C)c2c1c1ccccc1n2CCCCCCNCc1ccccc1
inactive: SNB-78 1.96 µM | DMS-273 1.21 µM | M19-MEL 2.09 µM | XF498 2.29 µM
